What was measured:
rat liver ACC = rat liver ACC (Rattus norvegicus, UniProt P11497); assay type: biochemical; details: rat liver ACC radio enzymatic assay
Protocol: [1] Preparation of rat liver ACC. Rat liver ACC was obtained from rat liver based upon standard procedures such as those described by Thampy and Wakil (J. Biol. Chem. 260: 6318-6323; 1985) using the following method.
Male CD rats weighing 150-200 g were fasted for 18-24 hours and then fed a high sucrose diet (AIN-76A rodent diet; Cat # D10001, Research Diets Inc., New Brunswick, N.J.), for 3 days at which time they were sacrificed by CO2 asphyxiation. The livers were removed, rinsed in ice-cold phosphate-buffered saline (PBS), and homogenized in 5 volumes of homogenization buffer (50 mM potassium phosphate, pH 7.5, 10 mM EDTA, 10 mM 2-mercaptoethanol, 2 mM benzamidine, 0.2 mM phenylmethylsulfonylfluoride (PMSF), 5 mg/L each leupeptin, aprotinin, and antitrypsin) in a Waring® blender for 1 minute at 4° C. All subsequent operations were carried out at 4° C. The homogenate has made 3% with respect to polyethylene glycol (PEG) by the addition of 50% PEG solution and centrifuged at 20,000×g for 15 minutes. The resulting supernatant was adjusted to 5% PEG with the addition of 50% PEG solution and stirred for 5 minutes. The pellet (contains ACC activity) was collected by centrifugation at 20,000×g for 20 minutes, rinsed with ice-cold doubly distilled water to remove excess PEG and re-suspended in one-fourth the original homogenate volume with homogenization buffer. Ammonium sulfate (200 g/liter) was slowly added with stirring. After 45 minutes the enzyme is collected by centrifugation for 30 minutes at 20,000×g, re-suspended in 10 mL of 50 mM HEPES, pH7.5, 0.1 mM DTT, 1.0 mM EDTA, and 10% glycerol and desalted on a Sephadex™ G-25 column (2.5 cm×50 cm) (Pharmacia, Piscataway N.J. now GE Healthcare) equilibrated with the same buffer. The desalted enzyme preparation was stored in aliquots at −70° C. Immediately prior to use, frozen rat liver ACC aliquots were thawed, diluted to 500 μg/mL in buffer containing 50 mM HEPES, pH7.5, 10 mM MgCl2, 10 mM tripotassium citrate, 2.0 mM dithiothreitol (DTT), and 0.75 mg/mL fatty acid-free bovine serum albumin (BSA) and pre-incubated at 37° C. for 30 minutes.
[2] Measurement of rat liver ACC inhibition. For measurement of ACC activity and assessment of ACC inhibition, test compounds were dissolved in dimethylsulfoxide (DMSO) and 1 μL aliquots were added to a clear bottom, 96-well plates (Perkin-Elmer PN#1450-514). Control wells contain 1 μL of DMSO alone or 1 μL of high inhibition compound. The enzyme obtained from rat liver as described above was activated in Enzyme buffer at 37° C. for 30 minutes prior to addition to compound plate. All wells receive 75 μL of activated enzyme (1.33×) in a buffer containing 50 mM HEPES, pH7.5, 7.5 mM MgCl2 7.5 mM tripotassium citrate, 2 mM DTT, 50 mg/mL BSA. The activated enzyme was pre-incubated with the cmpd for 10 minute prior to initiating the reaction through the addition of 25 μL of substrate solution containing 50 mM HEPES, pH7.5, 7.5 mM MgCl2 7.5 mM tripotassium citrate, 2 mM DTT, 50 mg/mL BSA, 120 μM acetyl-CoA, 8.0 mM ATP, 38.4 mM KHCO3, and 1.6 mM NaH[^14C]O3 ([…]). The final substrate concentrations in the reaction were 30 μM Acetyl-CoA, 9.6 mM KHCO3, 0.4 mM NaH[^14C]O3, and 2 mM ATP. The reaction was terminated after 10 mins by the addition of 25 μL 3N HCl and the plates were dried at 50° C. for a minimum 20 hrs. 30 μL of water was added to the dried plate and mixed for 5 minutes. 95 μL of Optiphase Supermix liquid scintillation fluid (Perkin Elmer, Waltham, Mass.) was added and the plates are mixed for 20 minutes. Incorporation of ^14C into MCoA was measured using a Wallac Trilux 1450 Microbeta LSC luminescence counter.

recombinant human ACC2 = biological target: T1, recombinant human ACC2 (Homo sapiens, UniProt O00763); assay: Measurement of human ACC2 inhibition (recombinant hACC2 Transcreener ADP detection FP assay); assay type: biochemical; details: recombinant hACC2 transcreener assay; read-out: rhACC2 IC50
T1 construct: a full length Cytomax clone of ACC2 was purchased from Cambridge Bioscience Limited; made in house; host or cells: CHO cells (tetracycline induction, pcDNA5 FRT TO-TOPO); purified on a Softlink Soft Release Avidin column
T1 sequence (O00763 whole entry): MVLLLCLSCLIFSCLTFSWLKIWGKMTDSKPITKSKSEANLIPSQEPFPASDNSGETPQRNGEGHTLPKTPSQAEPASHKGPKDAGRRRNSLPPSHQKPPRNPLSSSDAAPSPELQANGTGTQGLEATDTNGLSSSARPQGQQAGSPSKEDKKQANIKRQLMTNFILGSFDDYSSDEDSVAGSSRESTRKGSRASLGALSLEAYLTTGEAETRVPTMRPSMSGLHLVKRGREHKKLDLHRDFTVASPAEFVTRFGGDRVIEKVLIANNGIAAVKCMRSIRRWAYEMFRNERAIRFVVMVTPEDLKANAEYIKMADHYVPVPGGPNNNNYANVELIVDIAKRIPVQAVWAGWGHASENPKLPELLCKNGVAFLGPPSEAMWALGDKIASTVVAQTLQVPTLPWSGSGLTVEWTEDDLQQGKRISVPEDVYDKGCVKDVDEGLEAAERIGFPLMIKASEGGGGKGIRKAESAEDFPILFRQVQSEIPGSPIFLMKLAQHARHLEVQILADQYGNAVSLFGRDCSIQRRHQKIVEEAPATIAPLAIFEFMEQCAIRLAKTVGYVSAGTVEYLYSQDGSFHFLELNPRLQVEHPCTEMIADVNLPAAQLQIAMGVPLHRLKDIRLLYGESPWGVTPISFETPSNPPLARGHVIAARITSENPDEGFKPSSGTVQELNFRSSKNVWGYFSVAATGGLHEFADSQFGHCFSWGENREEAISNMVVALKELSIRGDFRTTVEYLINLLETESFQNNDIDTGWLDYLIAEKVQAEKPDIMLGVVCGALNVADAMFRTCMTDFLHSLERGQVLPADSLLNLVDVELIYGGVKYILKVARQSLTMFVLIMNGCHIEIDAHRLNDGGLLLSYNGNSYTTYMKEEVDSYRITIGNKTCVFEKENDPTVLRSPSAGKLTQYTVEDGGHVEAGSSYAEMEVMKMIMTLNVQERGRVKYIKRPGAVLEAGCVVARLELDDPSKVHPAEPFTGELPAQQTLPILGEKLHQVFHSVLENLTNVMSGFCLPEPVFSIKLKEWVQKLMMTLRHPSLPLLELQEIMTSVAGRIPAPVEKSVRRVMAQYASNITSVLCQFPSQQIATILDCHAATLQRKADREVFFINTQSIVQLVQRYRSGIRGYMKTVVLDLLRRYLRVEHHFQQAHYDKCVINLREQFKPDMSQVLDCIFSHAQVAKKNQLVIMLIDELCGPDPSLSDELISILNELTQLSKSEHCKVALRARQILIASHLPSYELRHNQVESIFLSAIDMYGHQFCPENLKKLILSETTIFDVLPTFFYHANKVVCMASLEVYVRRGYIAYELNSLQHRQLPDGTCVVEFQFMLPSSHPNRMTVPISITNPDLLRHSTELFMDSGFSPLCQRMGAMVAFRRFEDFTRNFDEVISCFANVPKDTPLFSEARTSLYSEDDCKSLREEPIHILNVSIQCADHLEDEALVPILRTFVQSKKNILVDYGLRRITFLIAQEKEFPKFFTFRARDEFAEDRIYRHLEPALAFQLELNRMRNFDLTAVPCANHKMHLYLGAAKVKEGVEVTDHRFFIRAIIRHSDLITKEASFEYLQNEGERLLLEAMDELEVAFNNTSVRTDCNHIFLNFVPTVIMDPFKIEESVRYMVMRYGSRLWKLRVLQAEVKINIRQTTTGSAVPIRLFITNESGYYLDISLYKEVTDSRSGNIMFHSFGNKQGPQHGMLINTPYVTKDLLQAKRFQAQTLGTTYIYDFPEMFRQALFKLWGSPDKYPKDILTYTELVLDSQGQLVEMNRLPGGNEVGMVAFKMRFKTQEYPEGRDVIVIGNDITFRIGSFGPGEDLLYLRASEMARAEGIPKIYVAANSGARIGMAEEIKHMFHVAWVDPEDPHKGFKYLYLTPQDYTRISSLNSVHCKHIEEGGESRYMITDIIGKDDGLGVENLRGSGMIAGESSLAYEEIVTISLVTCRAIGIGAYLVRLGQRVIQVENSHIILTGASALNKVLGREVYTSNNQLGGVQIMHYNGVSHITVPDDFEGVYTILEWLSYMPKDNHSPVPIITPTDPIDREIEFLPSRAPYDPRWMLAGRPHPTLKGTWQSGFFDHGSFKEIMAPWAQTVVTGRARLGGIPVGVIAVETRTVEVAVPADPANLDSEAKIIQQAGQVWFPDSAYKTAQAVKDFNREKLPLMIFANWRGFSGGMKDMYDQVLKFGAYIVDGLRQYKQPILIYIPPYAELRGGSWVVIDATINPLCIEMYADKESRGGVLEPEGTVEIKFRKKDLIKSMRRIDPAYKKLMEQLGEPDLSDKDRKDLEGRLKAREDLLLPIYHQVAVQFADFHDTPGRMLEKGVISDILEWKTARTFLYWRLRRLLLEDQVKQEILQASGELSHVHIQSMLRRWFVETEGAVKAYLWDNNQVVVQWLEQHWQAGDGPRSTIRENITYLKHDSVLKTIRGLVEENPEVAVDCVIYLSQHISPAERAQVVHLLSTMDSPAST
Procedure, shortened: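 Purified hACC2 from tetracycline-induced CHO cells (avidin-column eluate) was run in 50 mM HEPES pH7.5, 5 mM MgCl2, 5 mM citrate, 2 mM DTT, 0.5 mg/mL BSA with 30 μM acetyl-CoA, 50 μM ATP and 8 mM KHCO3. Reaction lasted 1 hour at room temperature; ADP was detected by Transcreener FP after another 1 hour.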

[1] = tested on: malonyl-CoA levels in liver; assay: Acute in vivo assessment of ACC inhibition: malonyl-CoA levels in liver tissue; design: species or system male Sprague-Dawley Rats; details: relative to chow-fed vehicle control group, % decrease +/- SEM
Protocol: (§1) The ACC inhibitory activity of the compound of the present invention can be confirmed in vivo by evaluation of their ability to reduce malonyl-CoA levels in liver and muscle tissue from treated animals.
(§2) Measurement of malonyl-CoA production inhibition in experimental animals. In this method, male Sprague-Dawley Rats, maintained on standard chow and water ad libitum (225-275 g), were randomized prior to the study. Animals were either fed, or fasted for 18 hours prior to the beginning of the experiment. Two hours into the light cycle the animals were orally dosed with a volume of 5 mL/kg, (0.5% methyl cellulose; vehicle) or with the appropriate compound (prepared in vehicle). Fed vehicle controls were included to determine baseline tissue malonyl-CoA levels while fasted animals were included to determine the effect fasting had on malonyl-CoA levels. One hour after compound administration the animals were asphyxiated with CO2 and the tissues were removed. Specifically, blood was collected by cardiac puncture and placed into BD Microtainer tubes containing EDTA (BD Biosciences, NJ), mixed, and placed on ice. Plasma was used to determine drug exposure. Liver and quadriceps were removed, immediately freeze-clamped, wrapped in foil and stored in liquid nitrogen.
(§3) Tissues were pulverized under liquid N2 to ensure uniformity in sampling. Malonyl-CoA was extracted from the tissue (150-200 mg) with 5 volumes 10% […] in Lysing Matrix A (MP Biomedicals, PN 6910) in a FastPrep FP120 (Thermo Scientific, speed=5.5; for 45 seconds). The supernatant containing malonyl-CoA was removed from the cell debris after centrifugation at 15000×g for 30 minutes (Eppendorf Centrifuge 5402). Samples were stably frozen at −80 C until analysis is completed.
(§4) Analysis of malonyl CoA levels in liver and muscle tissue can be evaluated using the following methodology.
(§5) The method utilizes the following materials: Malonyl-CoA tetralithium salt and malonyl-^13C3-CoA trilithium salt which were purchased from Isotec (Miamisburg, Ohio, USA), sodium perchlorate (Sigma, cat no. 410241), trichloroacetic acid (ACROS, cat no. 42145), phosphoric acid (J. T. Baker, cat no. 0260-01), ammonium formate (Fluke, cat no. 17843), methanol (HPLC grade, J. T. Baker, cat no. 9093-33), and water (HPLC grade, J. T. Baker, 4218-03) were used to make the necessary mobile phases. Strata-X on-line solid phase extraction columns, 25 μm, 20 mm×2.0 mm I.D (cat no. 00M-S033-B0-CB) were obtained from Phenomenex (Torrance, Calif., USA). SunFire C18 reversed-phase columns, 3.5 μm, 100 mm×3.0 mm I.D. (cat no. 186002543) were purchased from Waters Corporation (Milford, Mass., USA).
(§6) This method may be performed utilizing the following equipment. Two-dimensional chromatography using an Agilent 1100 binary pump, an Agilent 1100 quaternary pump and two Valco Cheminert 6-port two position valves. Samples were introduced via a LEAP HTC PAL auto sampler with Peltier cooled stack maintained at 10° C. and a 20 μL sampling loop. The needle wash solutions for the autosampler are 10% trichloroacetic acid in water (w/v) for Wash 1 and 90:10 methanol:water for Wash 2. The analytical column (Sunfire) was maintained at 35° C. using a MicroTech Scientific Micro-LC Column Oven. The eluant was analyzed on an ABI Sciex API3000 triple quadrupole mass spectrometer with Turbo Ion Spray.
(§7) Two-dimensional chromatography was performed in parallel using distinct gradient elution conditions for on-line solid phase extraction and reversed-phase chromatography. The general design of the method was such that the first dimension was utilized for sample clean-up and capture of the analyte of interest followed by a brief coupling of both dimensions for elution from the first dimension onto the second dimension. The dimensions were subsequently uncoupled allowing for gradient elution of the analyte from the second dimension for quantification while simultaneously preparing the first dimension for the next sample in the sequence. […]

[2] = tested on: malonyl-CoA levels in muscle tissue; assay: Acute in vivo assessment of ACC inhibition: malonyl-CoA levels in muscle tissue (quadriceps); design: species or system male Sprague-Dawley Rats; details: relative to chow-fed vehicle control group, % decrease +/- SEM
Protocol: as §1, §2, §3, §4, §5, §6, §7

Structure (SMILES) | IC50 (rat liver ACC) [µM] | IC50 (recombinant human ACC2) [µM] | other results
Cc1n[nH]c2c(C)cc(C(=O)N3CCC4(CC3)CC(=O)c3nn(C5CCOC5)c(C)c3O4)cc12 (centres unmarked) [1.015] | 0.021 | 0.02 | –
Cc1cc(C(=O)N2CCC3(CC2)CC(=O)c2nn(C(C)C)cc2O3)cc2cn[nH]c12 [1.022] | 0.022 | 0.028 | –
CCn1nc2c(c1C)OC1(CCN(C(=O)c3cc(C)c4[nH]ncc4c3)CC1)CC2=O [1.023] | 0.028 | 0.031 | –
CCCn1cc2c(n1)C(=O)CC1(CCN(C(=O)c3cc(C)c4[nH]ncc4c3)CC1)O2 [1.027] | 0.048 | 0.043 | –
Cc1cc(C(=O)N2CCC3(CC2)CC(=O)c2nn(C4CCCC4)cc2O3)cc2cn[nH]c12 [1.038] | 0.014 | 0.009 | –
Cc1cc(C(=O)N2CCC3(CC2)CC(=O)c2nn(C4CCC4)cc2O3)cc2cn[nH]c12 [1.039] | 0.015 | 0.013 | –
CC(C)(C)n1cc2c(n1)C(=O)CC1(CCN(C(=O)c3ccc4[nH]ncc4c3)CC1)O2 [1.074] | 0.017 | – | Percent decrease in Liver Malonyl-CoA ([1]; dose 1 mg/kg): 34.97 (2.59) %; Percent decrease in Liver Malonyl-CoA ([1]; dose 3 mg/kg): 53.97 (1.19) %; Percent decrease in Liver Malonyl-CoA ([1]; dose 10 mg/kg): 70.74 (3.49) %; Percent decrease in Liver Malonyl-CoA ([1]; dose 30 mg/kg): 63.60 (3.57) %; Percent decrease in Muscle Malonyl-CoA (quadriceps) ([2]; dose 1 mg/kg): 2.34 (5.44) %; Percent decrease in Muscle Malonyl-CoA (quadriceps) ([2]; dose 3 mg/kg): 24.42 (6.83) %; Percent decrease in Muscle Malonyl-CoA (quadriceps) ([2]; dose 10 mg/kg): 49.00 (2.40) %; Percent decrease in Muscle Malonyl-CoA (quadriceps) ([2]; dose 30 mg/kg): 57.06 (2.04) %
CCOc1cc(C(=O)N2CCC3(CC2)CC(=O)c2nn(CC)c(C)c2O3)cc2c(CC)n[nH]c12 [1.119] | 0.013 | 0.018 | –
CCOc1cc(C(=O)N2CCC3(CC2)CC(=O)c2nn(C(C)C)cc2O3)cc2cn[nH]c12 [1.123] | 0.016 | 0.014 | –
CCC(C)n1nc2c(c1C)OC1(CCN(C(=O)c3ccc4[nH]nc(C)c4c3)CC1)CC2=O (centres unmarked) [1.137] | 0.017 | 0.009 | –
CCC(C)n1cc2c(n1)C(=O)CC1(CCN(C(=O)c3ccc4[nH]nc(C)c4c3)CC1)O2 (centres unmarked) [1.141] | 0.032 | 0.019 | –
Cc1c(C(=O)N2CCC3(CC2)CC(=O)c2nn(C(C)(C)C)cc2O3)ccc2[nH]ncc12 [1.147] | 0.015 | 0.049 | –

More lines, main results first:

IC50 (rat liver ACC) [µM] | IC50 (recombinant human ACC2) [µM] | Structure (SMILES) | other results
0.01 | 0.004 | Cc1nc2c(C)cc(C(=O)N3CCC4(CC3)CC(=O)c3nn(C(C)(C)C)cc3O4)cc2[nH]1 [3.003] | –
0.009 | 0.029 | CCn1nc2c(c1C)OC1(CCN(C(=O)c3cc(C)c4[nH]cc(C)c4c3)CC1)CC2=O [4.001] | –
0.201 | 0.147 | CC(C)n1cc2c(n1)C(=O)CC1(CCN(C(=O)c3ccc4cn(C)nc4c3)CC1)O2 [5.002] | –
0.077 | 0.038 | COc1ccc2cc(C(=O)N3CCC4(CC3)CC(=O)c3nn(C(C)(C)C)cc3O4)ccc2c1 [6.004] | –
0.046 | 0.025 | CC(C)(C)n1cc2c(n1)C(=O)CC1(CCN(C(=O)c3ccc4ncsc4c3)CC1)O2 [10.002] | –

Reference: patent US8318762B2, “Pyrazolospiroketone acetyl-CoA carboxylase inhibitors” (Pfizer Inc., priority 2008, dated 2012)
